Experimental data: ChEMBL document CHEMBL4130363, “Synthesis and pharmacological evaluation of benzamide derivatives as potent and selective sigma-1 protein ligands” (Eur J Med Chem, 2017)

Columns and labels:
[1] = target: T1, 5-hydroxytryptamine receptor 1A (Homo sapiens) (UniProt P08908); experiment: Agonist activity at recombinant human 5-HT1A assessed as induction of cAMP levels at 10 uM by HTRF assay relative to agonist; assay type: functional
T1 sequence (whole entry): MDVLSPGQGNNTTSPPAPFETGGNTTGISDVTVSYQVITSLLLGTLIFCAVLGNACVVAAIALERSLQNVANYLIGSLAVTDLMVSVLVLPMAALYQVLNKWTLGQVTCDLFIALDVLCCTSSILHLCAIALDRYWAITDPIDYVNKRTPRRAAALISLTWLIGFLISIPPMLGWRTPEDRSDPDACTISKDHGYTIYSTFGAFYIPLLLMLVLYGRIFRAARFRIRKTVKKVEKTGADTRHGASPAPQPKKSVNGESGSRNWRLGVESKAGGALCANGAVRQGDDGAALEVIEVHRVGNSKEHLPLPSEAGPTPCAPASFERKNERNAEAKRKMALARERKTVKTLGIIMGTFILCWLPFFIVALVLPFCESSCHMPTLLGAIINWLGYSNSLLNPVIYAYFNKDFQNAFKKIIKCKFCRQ

[2] = target: 5-hydroxytryptamine receptor 2B (Homo sapiens) (UniProt P41595); experiment: Agonist activity at recombinant human 5-HT2B at 10 uM by aequorin reporter based assay relative to agonist; assay type: functional
5-hydroxytryptamine receptor 2B (Homo sapiens), sequence (P41595 whole entry): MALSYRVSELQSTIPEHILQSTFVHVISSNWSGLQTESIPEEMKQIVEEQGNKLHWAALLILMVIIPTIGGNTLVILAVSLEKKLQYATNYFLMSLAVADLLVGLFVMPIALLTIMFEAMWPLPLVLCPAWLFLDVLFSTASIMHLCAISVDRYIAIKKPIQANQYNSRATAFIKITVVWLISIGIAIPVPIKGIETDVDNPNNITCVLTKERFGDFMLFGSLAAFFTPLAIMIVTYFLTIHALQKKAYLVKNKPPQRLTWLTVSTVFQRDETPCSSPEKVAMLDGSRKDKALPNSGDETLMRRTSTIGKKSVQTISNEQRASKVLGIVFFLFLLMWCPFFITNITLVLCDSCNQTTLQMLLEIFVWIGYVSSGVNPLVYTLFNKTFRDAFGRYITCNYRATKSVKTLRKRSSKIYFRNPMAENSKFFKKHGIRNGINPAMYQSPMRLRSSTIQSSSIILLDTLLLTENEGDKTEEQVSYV

[3] = target: T2, 5-hydroxytryptamine receptor 2C (Homo sapiens) (UniProt P28335); experiment: Antagonist activity at recombinant human 5-HT2C assessed as inhibition of agonist-induced effect at 10 uM by aequorin reporter based assay; assay type: functional
T2 sequence (whole entry): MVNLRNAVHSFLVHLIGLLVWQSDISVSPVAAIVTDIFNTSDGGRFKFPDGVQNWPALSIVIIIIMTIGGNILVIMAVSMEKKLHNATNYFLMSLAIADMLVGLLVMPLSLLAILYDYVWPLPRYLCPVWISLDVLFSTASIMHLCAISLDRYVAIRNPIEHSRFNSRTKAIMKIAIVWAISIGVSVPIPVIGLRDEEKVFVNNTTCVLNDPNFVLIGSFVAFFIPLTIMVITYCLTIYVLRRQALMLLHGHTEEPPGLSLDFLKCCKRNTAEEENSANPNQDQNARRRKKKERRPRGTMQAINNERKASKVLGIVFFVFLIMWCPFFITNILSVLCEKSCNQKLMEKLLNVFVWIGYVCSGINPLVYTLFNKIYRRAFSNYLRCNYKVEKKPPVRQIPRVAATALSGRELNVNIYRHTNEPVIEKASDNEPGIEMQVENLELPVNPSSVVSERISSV

[4] = target: T3, 5-hydroxytryptamine receptor 3A (Homo sapiens) (UniProt P46098); experiment: Agonist activity at recombinant human 5-HT3 at 10 uM by aequorin reporter based assay relative to agonist
T3 sequence (whole entry): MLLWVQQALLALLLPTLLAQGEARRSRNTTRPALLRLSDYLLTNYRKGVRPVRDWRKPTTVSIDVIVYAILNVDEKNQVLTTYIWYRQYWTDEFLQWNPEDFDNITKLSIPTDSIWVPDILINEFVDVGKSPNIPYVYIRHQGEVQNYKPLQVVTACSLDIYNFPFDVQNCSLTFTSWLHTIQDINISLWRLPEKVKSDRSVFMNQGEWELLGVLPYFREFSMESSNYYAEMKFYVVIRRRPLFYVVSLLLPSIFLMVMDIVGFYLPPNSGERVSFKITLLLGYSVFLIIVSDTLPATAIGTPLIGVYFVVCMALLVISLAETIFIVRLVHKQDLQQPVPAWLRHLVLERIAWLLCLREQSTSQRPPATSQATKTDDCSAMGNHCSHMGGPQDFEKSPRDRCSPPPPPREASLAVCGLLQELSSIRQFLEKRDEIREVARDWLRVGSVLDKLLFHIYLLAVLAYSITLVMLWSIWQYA

[5] = target: 5-hydroxytryptamine receptor 7 (Homo sapiens) (UniProt P34969); experiment: Agonist activity at recombinant human 5-HT7R assessed as induction of cAMP levels at 10 uM by HTRF assay relative to agonist; assay type: functional
5-hydroxytryptamine receptor 7 (Homo sapiens), sequence (P34969 whole entry): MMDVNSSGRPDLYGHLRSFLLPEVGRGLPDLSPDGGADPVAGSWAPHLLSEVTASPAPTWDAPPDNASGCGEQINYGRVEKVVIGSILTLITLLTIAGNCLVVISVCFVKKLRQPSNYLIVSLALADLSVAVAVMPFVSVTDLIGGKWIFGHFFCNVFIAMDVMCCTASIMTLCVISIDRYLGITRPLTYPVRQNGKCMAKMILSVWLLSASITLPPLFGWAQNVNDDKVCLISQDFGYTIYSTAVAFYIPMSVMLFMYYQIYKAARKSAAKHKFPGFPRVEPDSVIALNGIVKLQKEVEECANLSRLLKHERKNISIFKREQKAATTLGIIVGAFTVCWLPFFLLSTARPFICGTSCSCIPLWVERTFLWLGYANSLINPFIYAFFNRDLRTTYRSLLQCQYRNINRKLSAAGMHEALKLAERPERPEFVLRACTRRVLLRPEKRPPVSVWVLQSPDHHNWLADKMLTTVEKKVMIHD

[6] = target: T4, Alpha-2B adrenergic receptor (Homo sapiens) (UniProt P18089); experiment: Agonist activity at recombinant human alpha-2b adrenergic receptor at 10 uM by GTPgamma[35S] binding-based assay relative to agonist; assay type: functional
T4 sequence (whole entry): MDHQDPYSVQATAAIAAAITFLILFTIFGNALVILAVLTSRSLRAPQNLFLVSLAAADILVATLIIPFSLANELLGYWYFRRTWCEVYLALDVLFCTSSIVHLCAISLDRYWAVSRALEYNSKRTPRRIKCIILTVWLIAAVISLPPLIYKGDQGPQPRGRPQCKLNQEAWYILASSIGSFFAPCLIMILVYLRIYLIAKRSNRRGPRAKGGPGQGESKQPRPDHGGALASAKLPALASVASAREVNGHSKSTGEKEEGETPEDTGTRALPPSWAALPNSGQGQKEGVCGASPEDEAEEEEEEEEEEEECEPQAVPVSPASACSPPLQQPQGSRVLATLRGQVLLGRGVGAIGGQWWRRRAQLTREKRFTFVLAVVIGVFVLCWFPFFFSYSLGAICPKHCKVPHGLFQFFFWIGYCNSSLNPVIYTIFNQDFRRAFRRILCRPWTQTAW

[7] = target: Cannabinoid receptor 1 (Homo sapiens) (UniProt P21554); experiment: Agonist activity at recombinant human CB1 receptor […] at 10 uM by HTRF assay relative to agonist; assay type: functional
Cannabinoid receptor 1 (Homo sapiens), sequence (P21554 whole entry): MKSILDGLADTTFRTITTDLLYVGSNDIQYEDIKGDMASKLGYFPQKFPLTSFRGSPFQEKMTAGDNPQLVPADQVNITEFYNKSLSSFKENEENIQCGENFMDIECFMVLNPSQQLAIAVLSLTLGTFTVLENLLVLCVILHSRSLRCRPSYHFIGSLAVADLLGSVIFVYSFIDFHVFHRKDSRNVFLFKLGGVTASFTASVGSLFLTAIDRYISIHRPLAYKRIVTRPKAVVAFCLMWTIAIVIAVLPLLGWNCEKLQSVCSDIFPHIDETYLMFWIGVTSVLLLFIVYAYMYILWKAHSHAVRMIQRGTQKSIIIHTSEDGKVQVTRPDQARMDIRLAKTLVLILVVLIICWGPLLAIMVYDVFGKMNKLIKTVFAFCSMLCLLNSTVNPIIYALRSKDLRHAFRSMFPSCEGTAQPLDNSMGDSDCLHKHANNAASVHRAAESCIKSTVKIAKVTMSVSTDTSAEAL

[8] = target: T5, Cholecystokinin receptor type A (Homo sapiens) (UniProt P32238); experiment: Agonist activity at recombinant human […] receptor at 10 uM by aequorin reporter based assay relative to agonist; assay type: functional
T5 sequence (whole entry): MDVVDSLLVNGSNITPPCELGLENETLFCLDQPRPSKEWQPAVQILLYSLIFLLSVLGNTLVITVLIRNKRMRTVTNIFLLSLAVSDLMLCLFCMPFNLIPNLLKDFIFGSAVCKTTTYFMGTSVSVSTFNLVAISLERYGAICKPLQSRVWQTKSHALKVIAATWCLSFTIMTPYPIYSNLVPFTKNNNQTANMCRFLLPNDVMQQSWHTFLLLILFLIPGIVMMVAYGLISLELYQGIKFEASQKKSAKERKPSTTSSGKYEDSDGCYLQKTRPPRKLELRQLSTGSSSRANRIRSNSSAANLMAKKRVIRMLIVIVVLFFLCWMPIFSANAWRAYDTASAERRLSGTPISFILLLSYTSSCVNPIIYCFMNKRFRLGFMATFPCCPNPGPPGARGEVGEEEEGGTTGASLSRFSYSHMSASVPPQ

[9] = target: D(1A) dopamine receptor (Homo sapiens) (UniProt P21728); experiment: Agonist activity at recombinant human dopamine D1 receptor assessed as induction of cAMP levels at 10 uM by HTRF assay relative to agonist; assay type: functional
D(1A) dopamine receptor (Homo sapiens), sequence (P21728 whole entry): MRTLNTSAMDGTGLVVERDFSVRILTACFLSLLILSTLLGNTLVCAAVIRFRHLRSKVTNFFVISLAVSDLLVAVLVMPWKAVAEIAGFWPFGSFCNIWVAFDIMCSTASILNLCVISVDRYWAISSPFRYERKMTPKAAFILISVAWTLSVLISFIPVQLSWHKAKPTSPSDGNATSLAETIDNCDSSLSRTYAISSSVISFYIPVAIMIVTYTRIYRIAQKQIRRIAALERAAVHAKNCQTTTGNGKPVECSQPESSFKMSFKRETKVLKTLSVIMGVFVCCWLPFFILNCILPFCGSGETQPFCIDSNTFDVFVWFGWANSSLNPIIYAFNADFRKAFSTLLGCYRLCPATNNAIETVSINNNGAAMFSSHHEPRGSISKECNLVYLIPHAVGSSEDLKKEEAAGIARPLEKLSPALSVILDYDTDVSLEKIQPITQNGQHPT

[10] = target: Somatostatin receptor type 4 (Homo sapiens) (UniProt P31391); experiment: Antagonist activity at human somatostatin receptor 4 assessed as inhibition of agonist-induced effect at 10 uM by GTPgamma[35S] binding-based assay; assay type: functional
Somatostatin receptor type 4 (Homo sapiens), sequence (P31391 whole entry): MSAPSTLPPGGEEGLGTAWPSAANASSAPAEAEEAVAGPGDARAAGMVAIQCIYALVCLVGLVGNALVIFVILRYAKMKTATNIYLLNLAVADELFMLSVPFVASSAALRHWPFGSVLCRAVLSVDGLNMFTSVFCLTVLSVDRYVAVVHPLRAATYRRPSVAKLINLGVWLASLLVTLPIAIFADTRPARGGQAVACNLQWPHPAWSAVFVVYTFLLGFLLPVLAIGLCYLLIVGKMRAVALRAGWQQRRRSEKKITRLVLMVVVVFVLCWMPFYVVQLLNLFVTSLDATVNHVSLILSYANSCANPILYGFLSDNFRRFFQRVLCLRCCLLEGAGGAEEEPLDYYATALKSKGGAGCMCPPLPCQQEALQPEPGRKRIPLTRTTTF

[11] = target: Vasopressin V1a receptor (Homo sapiens) (UniProt P37288); experiment: Agonist activity at recombinant human V1A receptor at 10 uM by aequorin reporter based assay relative to agonist; assay type: functional
Vasopressin V1a receptor (Homo sapiens), sequence (P37288 whole entry, looked up): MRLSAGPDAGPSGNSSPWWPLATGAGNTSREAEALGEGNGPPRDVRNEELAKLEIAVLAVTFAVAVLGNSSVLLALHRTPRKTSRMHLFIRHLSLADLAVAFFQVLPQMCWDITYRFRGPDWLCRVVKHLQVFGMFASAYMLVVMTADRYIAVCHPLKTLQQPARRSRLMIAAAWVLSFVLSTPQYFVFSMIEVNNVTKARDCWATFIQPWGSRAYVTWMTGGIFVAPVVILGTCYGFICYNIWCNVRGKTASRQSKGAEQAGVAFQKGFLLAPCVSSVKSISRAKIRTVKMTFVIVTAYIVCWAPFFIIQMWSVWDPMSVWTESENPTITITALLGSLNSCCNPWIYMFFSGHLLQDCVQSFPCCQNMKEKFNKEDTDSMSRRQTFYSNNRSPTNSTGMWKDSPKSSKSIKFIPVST

SMILES	Activity [1]	Activity [2]	inhibition [3]	Activity [4]	Activity [5]	Activity [6]	Activity [7]	Activity [8]	Activity [9]	inhibition [10]	Activity [11]
CN(CCCNC(=O)c1ccc([N+](=O)[O-])cc1)Cc1ccccc1	-1%	-2%	11%	0%	33%	2%	3%	-1%	-1%	15%	-1%
CN(CCNC(=O)c1ccc([N+](=O)[O-])cc1)Cc1ccccc1	4%	-1%	80%	0%	26%	-4%	8%	-2%	14%	30%	0%
COc1cccc(C(=O)NCCCN(C)Cc2ccccc2)c1	0%	-2%	36%	0%	-5%	-1%	6%	-2%	8%	25%	0%
CN(CCNC(=O)c1ccc(C#N)cc1)Cc1ccccc1	4%	-4%	34%	0%	2%	-5%	-1%	-2%	9%	34%	0%
CN(CCCNC(=O)c1ccc(Br)cc1)Cc1ccccc1	0%	2%	34%	1%	9%	1%	-11%	-1%	-7%	4%	1%
CN(CCCNC(=O)c1ccc(C(F)(F)F)cc1)Cc1ccccc1	-5%	-2%	24%	-1%	33%	2%	-12%	-2%	-4%	17%	0%
CN(CCNC(=O)c1ccc(Cl)cc1)Cc1ccccc1	3%	0%	92%	0%	46%	-1%	-7%	-2%	-4%	21%	0%

The next lines start with the values.

Activity [1]	Activity [2]	inhibition [3]	Activity [4]	Activity [5]	Activity [6]	Activity [7]	Activity [8]	Activity [9]	inhibition [10]	Activity [11]	SMILES
-2%	2%	33%	0%	-1%	-4%	6%	-1%	4%	25%	0%	COc1ccc(C(=O)NCCCN(C)Cc2ccccc2)cc1
3%	1%	43%	2%	19%	1%	3%	-1%	-7%	20%	1%	CN(CCCNC(=O)c1ccc(Cl)cc1)Cc1ccccc1
32%	38%	95%	-1%	130%	0%	-3%	-2%	-6%	-3%	0%	CN(CCCNC(=O)c1ccc(Cl)cc1)CCc1ccccc1
-4%	-3%	94%	-1%	25%	-2%	-16%	-1%	-2%	31%	0%	CCCc1ccc(C(=O)NCCCN(C)Cc2ccccc2)cc1
-4%	-2%	54%	0%	21%	-4%	-16%	0%	-5%	21%	-1%	CN(CCCNC(=O)c1cccc(Br)c1)Cc1ccccc1
